Data set [1] has as its target T1, BBN receptor (Homo sapiens, UniProt P30550).
T1 construct: endogenous in cells; host or cells: NCI-H345 (human SCLC)
Briefly: Inhibition of [125I]Tyr4-BBN binding to SCLC NCI-H345 membranes. Particulars: for inhibition of BBN binding to SCLC membranes (in words): radiolabelled Tyr4-BBN. As to the method:
(§1) Acinar cells from rat pancreas bind BBN and secrete amylase when treated with BBN. The ability of potential antagonists to bind to rat pancreatic acinar cells was examined by determining the ability of the compounds to inhibit the binding of radiolabelled BBN. […] Finally, antagonist activity of the compounds was determined by measuring the ability of compounds to prevent the release of amylase from cells in response to BBN. […] This cell line was also used to evaluate biological activities of potential antagonists derived from the structures of BBN and GRP. The binding of synthetic compounds to cellular membranes prepared from NCI-H345 was determined. The ability of potential antagonists to block the BBN-stimulated increase in cytosolic levels of Ca^++ was determined. Compounds showing inhibition were further tested to determine the effect on growth of two human SCLC cell lines in culture.
Potential antagonists were also evaluated for their ability to inhibit the binding of radiolabelled Tyr^4 -BBN to SCLC membranes and for their effects on BBN signal transduction in SCLC cells.

The target of data set [2] is T1, BBN receptor. Briefly: Cytosolic Ca++ assay in SCLC cell line NCI-H345. Format: cell-based. Further details: key: antagonized (A); had no effect (--) on the ability of 10 nM BBN to. The settings on record: compound 10 μM; 10 nM BBN elevation of cytosolic Ca++. As to the method: SCLC cell line NCI-H345 was cultured for two days in medium containing 10^-8 M hydrocortisone, 5 μg/ml bovine insulin, 10 μg/ml human transferrin, 10^-8 M β-estradiol and 3×10^-8 M Na2 SeO3. The cells were harvested and washed, resuspended in medium containing 20 mM HEPES, pH 7.4, and loaded with 5 μM Fura 2 AM (Calbiochem) for 30 minutes. The cells were centrifuged at 150×g for 10 minutes to remove extracellular dye and resuspended and placed in a spectrofluorometer cell equipped with stirring and 37° C. heating. The emission was read at 510 nm with 340 excitation (Moody et al., Biochem. Biophys. Res. Commun. 147:189 (1987)). The response of compounds at 5 μM was measured initially as a screen and compared to that of 10 nM BBN. The response of varying concentrations of peptide (nM to μM) in the presence of 10 nM BBN was determined.

Data set [3] concerns NCI-H345. As to the kind of experiment: Clonagenic assay, colony formation of NCI-H345. It counts as cell-based, human. Further details: key to Growth: significantly reduced (R); had no effect (--) on th. Particulars: for reversal of colony inhibition by BBN (in words): 1 μM antagonist, 10 nM BBN added, both cell lines; for colony formation (in words): NCI-H345, 1 μM; for colony formation: NCI-H345, antagonist 1 μM plus BBN 10 nM; for Growth: compound 1 μM, clonal growth of a human tumor cell line. The procedure:
The effect of 1 to 1000 nM concentration of peptides on growth of NCI-H345 colonies stimulated by 10 nM BBN was measured in the agarose cloning system (Mahoud et al., Cancer Res. 51:1798 (1991); Staley et al., Peptides 12:145-149 (1991)). […] On the day of the assay, cells were harvested, centrifuged and suspended in the buffer. The agarose cloning system consisted of 3 ml of 0.5% agarose in SIT medium with 5% fetal bovine serum in six well plates. To a top layer, consisting of 3 ml HITES medium in 0.3% agarose, the peptides at two times concentration and 6×10^4 single viable cells, were added. For each peptide concentration, triplicate wells were plated. After two weeks, 1 ml of 0.1% p-iodo-nitrotetrazolium violet was added, and after 16 hours at 37° C., the plates were screened for colony formation; the number of colonies larger than […] in diameter were counted using a Bausch and Lomb Omnicon image analysis system.

The subject of data set [4] is NCI-H720. As to the kind of experiment: Clonagenic assay, colony formation of NCI-H720. The settings on record: for colony formation: NCI-H720; for colony formation (in words): second SCLC line (NCI-H270 in the text, NCI-H720 in Table 4), 1 μM. Format: cell-based, human. As to the method:
On the day of the assay, cells were harvested, centrifuged and suspended in the buffer. The agarose cloning system consisted of 3 ml of 0.5% agarose in SIT medium with 5% fetal bovine serum in six well plates. To a top layer, consisting of 3 ml HITES medium in 0.3% agarose, the peptides at two times concentration and 6×10^4 single viable cells, were added. For each peptide concentration, triplicate wells were plated. After two weeks, 1 ml of 0.1% p-iodo-nitrotetrazolium violet was added, and after 16 hours at 37° C., the plates were screened for colony formation; the number of colonies larger than […] in diameter were counted using a Bausch and Lomb Omnicon image analysis system.

Data set [5] concerns NCI-H345. As to the kind of experiment: Clonagenic assay, colony formation of NCI-H345. It counts as cell-based, human. The settings on record: antagonist 1 μM alone, mean ± S.E. of 3.
The target in data set [6] is T2, BBN receptor (Rattus norvegicus, UniProt P52500). Briefly: Stimulation of amylase release from rat pancreatic acinar cells by the compound alone (agonist test). It counts as cell-based.
For data set [7], the target named is T2, BBN receptor. Briefly: Inhibition of bombesin-stimulated amylase release from rat pancreatic acini. Format: cell-based. Particulars: half-maximal inhibition of bombesin-stimulated amylase release from acini; mean ± s.e.m. As to the method: as §1
The incubation solution contained 1% albumin and the wash solution contained 0.2% albumin. The solution was equilibrated with 100% O2. Dispersed acini were suspended in 20 ml of solution. Samples of 1 ml were incubated in the presence of various concentrations of compounds in the presence of 1 nM bombesin. After the first incubation the samples were washed 4 times with wash solution at 4° C. The acini were then resuspended in fresh incubation buffer and incubated at 37° C. Amylase release was measured by the Phadebas reagent. Amylase secretion during a given incubation was expressed as the percentage of amylase present in the acini at the beginning of that incubation that was released into the extracellular medium.

The target in data set [8] is T2, BBN receptor. As to the kind of experiment: Inhibition of 125I bombesin binding to rat pancreatic acinar cells. The settings on record: for Kd: inhibition of 125I bombesin binding, IC50 divided by radioligand concentration. The procedure:
Inhibition of equilibrium binding of ^125 I labeled bombesin to acinar membranes by the compounds was determined. The Kd was determined by dividing IC50 (the concentration of synthetic compound required to inhibit 50% of the specific binding of labelled BBN) by the concentration of radiolabeled peptide.

Data set [9] has as its target T2, BBN receptor. Format: cell-based. Particulars: PTC 821 1 μM.
Method: (§2) Dispersed acinar cells from rat pancreas were prepared as indicated above.
Data set [10] deals with T3, CCK Receptor (Rattus norvegicus, UniProt P30551).
T3 sequence (P30551 1-444): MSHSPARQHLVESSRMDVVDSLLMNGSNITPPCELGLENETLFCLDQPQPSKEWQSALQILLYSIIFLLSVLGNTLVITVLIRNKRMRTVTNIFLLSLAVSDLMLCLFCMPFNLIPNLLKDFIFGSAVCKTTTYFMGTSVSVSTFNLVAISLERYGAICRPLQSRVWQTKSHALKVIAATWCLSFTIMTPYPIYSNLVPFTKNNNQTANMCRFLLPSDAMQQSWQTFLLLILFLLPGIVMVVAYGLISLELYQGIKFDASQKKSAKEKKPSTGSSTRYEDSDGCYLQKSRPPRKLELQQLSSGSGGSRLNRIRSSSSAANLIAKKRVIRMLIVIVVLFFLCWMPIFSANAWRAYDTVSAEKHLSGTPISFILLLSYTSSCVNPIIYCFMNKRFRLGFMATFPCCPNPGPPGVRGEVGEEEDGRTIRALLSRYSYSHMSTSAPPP
As to the kind of experiment: Specificity test, CCK-stimulated amylase secretion of rat pancreatic acinar cells after wash. The settings on record: PTC 821 1 μM.
Method: as §2

Data set [11] concerns the target bombesin receptor. Particulars: inhibits growth with moderate potency; literature value; cited from earlier work.
The mark [12] stands for this setting: antagonist 1 μM alone, mean ± S.E. of 3.

A word on the IC50: it is the concentration needed to halve the response being measured. The EC50 is the concentration at which the effect is half-maximal. A word on the Kd: it is the concentration at which binding is half-saturated. By Ki is commonly meant the equilibrium dissociation constant of an inhibitor or competing ligand from its target.

Like-named read-outs stand apart in the source and are kept apart here. Non-standard residues stand in square brackets, D forms with d. Residues, ends and D or L forms follow the SMILES beside them. *: point of attachment. Chlorambucil = O=C(CCCc1ccc(N(CCCl)CCCl)cc1)*; BrAc = O=C(CBr)*

T2 sequence (P52500 whole entry): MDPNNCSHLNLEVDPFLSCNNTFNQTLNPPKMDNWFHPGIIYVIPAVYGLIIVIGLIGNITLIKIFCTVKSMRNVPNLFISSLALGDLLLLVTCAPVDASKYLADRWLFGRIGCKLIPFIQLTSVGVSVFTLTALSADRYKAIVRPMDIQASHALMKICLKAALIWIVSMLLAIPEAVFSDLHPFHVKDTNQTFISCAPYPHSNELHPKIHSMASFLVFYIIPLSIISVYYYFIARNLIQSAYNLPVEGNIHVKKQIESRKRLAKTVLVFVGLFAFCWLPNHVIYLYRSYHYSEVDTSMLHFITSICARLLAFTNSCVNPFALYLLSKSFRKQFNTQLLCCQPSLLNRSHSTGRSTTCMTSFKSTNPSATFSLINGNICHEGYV
T1 sequence (P30550 whole entry): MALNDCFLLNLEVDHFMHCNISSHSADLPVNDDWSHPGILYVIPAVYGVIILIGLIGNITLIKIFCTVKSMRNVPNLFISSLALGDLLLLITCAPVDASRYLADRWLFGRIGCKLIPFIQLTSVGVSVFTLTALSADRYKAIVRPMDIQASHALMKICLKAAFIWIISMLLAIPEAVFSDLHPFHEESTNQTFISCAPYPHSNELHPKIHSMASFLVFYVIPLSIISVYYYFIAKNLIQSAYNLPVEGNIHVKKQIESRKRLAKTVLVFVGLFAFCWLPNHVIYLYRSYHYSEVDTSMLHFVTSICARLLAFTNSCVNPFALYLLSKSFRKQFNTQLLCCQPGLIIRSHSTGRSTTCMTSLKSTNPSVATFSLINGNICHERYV

With `CCOC(=O)[C@H](CC(C)C)NC(=O)[C@H](Cc1c[nH]cn1)NC(=O)[C@@H](C)NC(=O)[C@@H](NC(=O)[C@H](C)NC(=O)[C@H](Cc1c[nH]c2ccccc12)NC(=O)[C@H](CCC(N)=O)NC(=O)[C@H](CC(N)=O)NC(=O)CBr)C(C)C` [PTC 816] (BrAc-NQWAV[dA]HL-OEt), in data set [1], the IC50 is 55 nM and the “inhibition of BBN binding to SCLC membranes (in words)” value is given as “potent inhibitors of BBN binding”. The “Ca++ effect” value in [2] is listed as “A”. Moreover, in data set [3], the “reversal of colony inhibition by BBN (in words)” value is recorded as “can be reversed”, the “colony formation (in words)” value is “reduce the amount of colony formation”, the colony formation was 52 ± 3 Colony per mm^2 and the Growth result was “R”. In data set [4] (setting [12]), this compound showed a colony formation of 37 ± 6 Colony per mm^2. The colony formation in [4] (antagonist 1 μM plus BBN 10 nM) is on record as 66 ± 8 Colony per mm^2. Besides, in [4], the “colony formation (in words)” value is on record as “reduce the amount of colony formation”. Besides, the colony formation in data set [5] is recorded as 27 ± 4 Colony per mm^2.

For `CCOC(=O)[C@H](CC(C)C)NC(=O)[C@H](Cc1c[nH]cn1)NC(=O)[C@@H](C)NC(=O)[C@@H](NC(=O)[C@H](C)NC(=O)[C@H](Cc1c[nH]c2ccccc12)NC(=O)[C@H](Cc1c[nH]cn1)NC(=O)CCCc1ccc(N(CCCl)CCCl)cc1)C(C)C` [PTC 821] (Chlorambucil-HWAV[dA]HL-OEt), the EC50 in [6] is over 3000 nM. Further, the IC50 was 6.3 ± 0.9 nM in [7] and 8 nM in [1]. Besides, in data set [8], binding was characterised by a dissociation constant (Kd) of 3.2 ± 0.5 nM. Moreover, the “Percent BBN Receptor Activity Recovered” value in data set [9] (1 Min post-wash) is 5%; in data set [9] (30 Min post-wash), 18%; in data set [9] (60 Min post-wash), 25%. Moreover, the “changes in the appearance of the cells indicative of toxicity” value in data set [9] (rat pancreatic acinar cells) is recorded as “no changes in the appearance of the cells”. The “Percent CCK Receptor Activity Recovered” value is on record as 107% in data set [10] (1 Min post-wash), 115% in data set [10] (30 Min post-wash) and 89% in data set [10] (60 Min post-wash).

Turning to [Psi^13,14, Leu^14 ]BBN, the Ki in data set [11] was 30 nM.

In turn, `CCOC(=O)[C@H](CC(C)C)NC(=O)[C@H](Cc1c[nH]cn1)NC(=O)[C@@H](C)NC(=O)[C@@H](NC(=O)[C@H](C)NC(=O)[C@H](Cc1c[nH]c2ccccc12)NC(=O)[C@H](Cc1c[nH]cn1)NC(C)=O)C(C)C` [PTC 818] (Ac-HWAV[dA]HL-OEt) gave an EC50 in data set [6] of over 3000 nM. The IC50 in data set [7] was 4.9 ± 0.1 nM; in data set [1] (50% inhibition of specific [125I]Tyr4-BBN binding, NCI-H345, read-out: IC50), 25 nM. In [8], this compound gave a Kd of 8.1 ± 1.8 nM. Also, in [8] (inhibition of radiolabelled BBN binding), the “binding to rat pancreatic acinar cells (in words)” value is recorded as “did bind to the cells”. Further, in data set [1], the “inhibition of BBN binding to SCLC membranes (in words)” value is on record as “potent inhibitors of BBN binding”. Further, the “Ca++ effect” value in data set [2] is “A”. For the same compound, in data set [3], the “reversal of colony inhibition by BBN (in words)” value is given as “can be reversed”. Also, the “colony formation (in words)” value in data set [3] and in data set [4] was “reduce the amount of colony formation” each time. Besides, the colony formation was 57 ± 6 Colony per mm^2 in data set [3], 36 ± 4 Colony per mm^2 in data set [4] (setting [12]), 62 ± 7 Colony per mm^2 in [4] (antagonist 1 μM plus BBN 10 nM) and 20 ± 5 Colony per mm^2 in data set [5]. For the same compound, the Growth result in data set [3] is recorded as “R”.

The values above are taken from patent US5620955A, “Bombesin receptor antagonists and uses thereof” (Peptide Technologies Corporation, priority 1993, dated 1997).
